Patent publication US7465824B2, “Process for the production of high purity aromatic carboxylic acids using a benzoic acid and water solvent for oxidation and purification” (BP Corporation North America Inc., priority 2007, dated 2008)

Assay: Solubility of TA in a solvent containing 50% benzoic acid and 50% water at various temperatures
Assay type: physicochemical
Settings: solvent 50% benzoic acid and 50% water
Description: The solubility of TA in a solvent containing 50% benzoic acid and 50% water was determined at various temperatures and is shown below in Table 1.

O=C(O)c1ccc(C(=O)O)cc1 [TA, terephthalic acid]
solubility of TA given in Example 1 (at 455 °F): 10.9%
TA Solubility (Temp 397 °F): 5.04 g TA/100 g Solution
TA Solubility (Temp 436 °F): 8.58 g TA/100 g Solution
TA Solubility (Temp 446 °F): 9.59 g TA/100 g Solution
TA Solubility (Temp 451 °F): 9.77 g TA/100 g Solution
TA Solubility (Temp 455 °F): 10.91 g TA/100 g Solution
TA Solubility (Temp 477 °F): 13.49 g TA/100 g Solution
TA Solubility (Temp 505 °F): 18.71 g TA/100 g Solution
